# Results published in US20030134342A1, “Binding-specific peptides, binding-specific carrier molecules, and uses thereof” (priority 2001, published 2003).
# Assays:
# AML bone marrow cells = test: Methylcellulose culture of AML bone marrow cells with peptides: proliferation (colonies) and differentiation (morphology); type: cell-based, human; details: for Activation of Proliferation GM-CSF / Cell Differentiation GM-CSF: with GM-CSF; for Activation of Proliferation (Patient No.) +GM-CSE: peptide with GM-CSF; for induction of differentiation of the patient cells (FIG. 8): AML bone marrow cells, 14 days methylcellulose; for Activation of Differentiation: patient numbers
# Method: The effect of various peptides were analyzed for their biological activity on cells from a patient with acute myelogenous leukemia. The AML cells were cultured into a semi-solid medium of methylcellulose in order to determine the cloning efficiency and the differentiation of the cells. The various peptides were introduced into the semi-solid cell culture at a concentration of 10^−4 M (0.1 mM) peptide. After 14 days continuous incubation of the cell cultures, the morphology of the cells were analyzed. The data are shown in FIG. 7 for the cultures and show the percentage of immature cells in the culture (solid black), the percentage of small myeloblasts (solid white), the percentage of young cells (dark gray), and the relative percentage of monocytes to […] (light gray). The data regarding the biological response of AML bone marrow cells in the presence of the various peptides is shown in the table below.
# CML cells = test: ELISA binding of phage displaying peptides to fixed cells: CML cells; set-up: species or system human; details: in words
# Method: (§1) Preliminary experiments were performed to identify specific peptides by using cells from patients diagnosed with CLL, CML, and AML. The screening was performed by incubating the cells with the phage-peptides from the library. This incubation allows interaction between the peptide and the cell. The binding step was followed by several washes to eliminate free phage. Phage bound on the cell surface was eluted.
# (§2) After the last round of binding with one cell type, the eluted phage was plated on an agar plate with the appropriate selection antibiotics. Each individual colony, corresponding to one individual peptide sequence, was amplified in a 96-well plate. After purification, these peptides were tested for their ability to bind to the cells in a microtiter plate by ELISA.
# (§3) Each peptide was dispensed in a 96-well plate, containing cells previously fixed. Each colony was tested in a triplicate assay with the appropriate controls. After incubation of cells with an individual clone, the wells were washed to eliminate free phage. The bound phages were detected by using a monoclonal anti-M13 antibody/horseradish peroxidase (HRP) conjugate. After addition of the HRP substrate, the intensity of the coloration was measured by spectrophotometry. The light absorbance values (optical density values, O.D. values) are proportional to the number of phage bound to the cells.
# (§4) The binding to various cell types were examined to evaluate the cellular specificity of the phage clones. For example, the clones from phage eluted from CLL patient cells were assayed for their ability to bind cells from an AML patient. Cells from normal donors (non-leukemic) were also evaluated to ascertain leukemia cell specificity.
# (§5) Peripheral blood and bone marrow samples were collected from patients after informed consent. The samples were collected in tubes containing sodium citrate. Mononuclear cells were isolated by Ficoll-Hypaque density gradient separation and collection of the cells at a density of 1.077 g/mL.
# (§6) The wells of a 96-well plate were pre-treated with 100 μL of poly-L-lysine (0.01 mg/mL in phosphate-buffered saline, 120 mM NaCl, 2.7 mM KCl, 10 mM phosphate buffer, “PBS”) for 2-16 hours at room temperature. After draining the poly-L-lysine from the wells, the excess poly-L-lysine was removed from the wells by flicking. The cells were washed with PBS, then suspended in PBS and diluted to a final concentration of […]. The cell suspension (200 μL; 250,000 cells) were added to each well needed for the assay.
# (§7) The plates were centrifuged at 500 g for about 5 minutes in a microplate carrying centrifuge when available. The cells were fixed to the wells through the addition of glutaraldehyde (100 μL of 0.5%) and incubating at room temperature for about an hour. The glutaraldehyde was removed and the cell-coated wells washed once with PBS. Alternatively, the cells were permitted to settle to the well bottoms for about 4 hours at 37° C., and the glutaraldehyde fixative was added after removing the PBS.
# (§8) A glycine solution (200 μl of 0.1 M glycine in PBS) containing bovine serum albumin (BSA; 1%) was added to the wells and permitted to incubate for 30 minutes to block excess glutaraldehyde. The glycine was removed, and the cell-coated wells washed once with PBS. A sodium pyrophosphate solution (200 μL of 0.3 mg/mL NaPPi) was added to the wells and incubated for an hour at room temperature to neutralize lysine charges. The pyrophosphate solution was removed and the wells washed once with PBS. Multiwell microtiter plates with cell-coated wells were stored at 4° C. with fresh PBS solution in the coated wells.
# (§9) The cells to be studied for binding were suspended in PBS and adsorbed onto to a poly-L-lysine pretreated 96-well plate and kept at 4° C. The PBS was removed from the wells and an H2O2 solution in PBS (6% H2O2 in 200 μL/well) was added. […]
# AML cells = test: ELISA binding of phage displaying peptides to fixed cells: AML cells; set-up: species or system human; details: in words
# Method: as §1, §2, §3, §4, §5, §6, §7, §8, §9
# [1] = test system: normal peripheral blood cells (lymphocytes and granulocytes); test: ELISA binding of phage displaying peptides to fixed cells: normal peripheral blood cells; set-up: species or system human; details: in words
# Method: as §1, §2, §3, §4, §5, §6, §7, §8, §9
# CLL cells = test: ELISA binding of phage displaying peptides to fixed cells: CLL cells; set-up: species or system human; details: in words
# Method: as §1, §2, §3, §4, §5, §6, §7, §8, §9
# [2] = test system: all myeloid cells, both malignant and nonmalignant; test: ELISA binding of phage displaying peptides to fixed cells: all myeloid cells; set-up: species or system human; details: in words
# Method: as §1, §2, §3, §4, §5, §6, §7, §8, §9
# [3] = test system: human bone marrow AML cells; test: Effect of phage-peptides on differentiation, cell number and viability of freshly obtained AML patient bone marrow cells cultured seven days; type: cell-based; details: for Number of Cells / Percent Differentiation: phage-peptides
# Source text: The effect of various phage-peptides were studied on the differentiation of cells from two AML patients.
# [4] = fraction, not explained, peptide alone
# [5] = numbers of the AML patients whose cells responded
# [6] = peptides in bacteriophage, AML cells cultured seven days in vitro
Sequence,Activation of Proliferation (AML bone marrow cells; [4]),Cell Differentiation (AML bone marrow cells; [4]),"Activation of Proliferation GM-CSF (AML bone marrow cells; fraction, not explained)","Cell Differentiation GM-CSF (AML bone marrow cells; fraction, not explained)",binding of phage displaying the peptide to CML cells (CML cells),binding of phage displaying the peptide to AML cells (AML cells),other results
CDEKRGPNEC [B4 C10],1/6,2/4,1/2,0/2,–,–,"Activation of Proliferation (Patient No.) (AML bone marrow cells; numbers of the AML patients whose cells responded, peptide alone, 10^−4 M, 14 days): 9; Activation of Proliferation (Patient No.) +GM-CSE (AML bone marrow cells; [5]): 11"
CEFQQWSGKC [G5 12-8B],–,–,–,–,bind,bind,"binding of phage displaying the peptide to blood cells (lymphocytes or granulocytes) [1]: bind; binding of phage displaying the peptide to CLL cells (CLL cells): bind; binding of phage displaying the peptide to all myeloid cells, both malignant and nonmalignant [2]: bind"
"CIEETAAKGC [Peptide A2A, A2 with R replaced by A]",4/11,3/8,2/4,1/4,–,–,"Inhibition of Proliferation (AML bone marrow cells; [4]): 1/11; activity on cell differentiation (FIG. 9, another example) (AML bone marrow cells; in words): have a biological activity; activity on cell differentiation compared with the peptide with cysteine residues (FIG. 8) (AML bone marrow cells; in words): higher activity; induction of differentiation of the patient cells (FIG. 8) (AML bone marrow cells; in words): able to induce the differentiation; Inhibition of Proliferation (AML bone marrow cells; numbers of the AML patients whose cells responded, peptide alone): 10; Activation of Differentiation (AML bone marrow cells): 3"
CNELHMKQHC [G7 12-8B],2/6,4/5,0/2,0/2,–,–,–
CNHVCSRLGC [B6 12-8B],5/14,3/13,3/5,2/5,–,–,Inhibition of Proliferation (AML bone marrow cells; [4]): 3/14
CNNATFEDGC [G2 12-8A],6/14,2/12,2/5,2/5,–,–,Inhibition of Proliferation (AML bone marrow cells; [4]): 1/14
CNNATVEDEC [C8 12-8B],2/8,1/8,1/2,1/2,–,–,–
DEKRGPNE [B4(1)],–,–,–,–,bind,bind,"Number of Cells ([3]; Patient 1): 1.3 106; Number of Cells ([3]; Patient 2): 0.25 106; Percent Differentiation ([3]; Patient 2): 53%; Percent differentiated in Specimen 2 [3, 6]: 53%"
EFQQWSGK [B7(1)],–,–,–,–,bind,bind,binding of phage displaying the peptide to CLL cells (CLL cells): not
EFQQWSGK [G2 11-24],–,–,–,–,bind and binds,bind and binds,"Number of Cells ([3]; Patient 1): 1.11 106; Percent Differentiation ([3]; Patient 1): 16.2%; Number of Cells ([3]; Patient 2): 0.25 106; Percent Differentiation ([3]; Patient 2): 39%; Percent differentiated in Specimen 1 ([3]; peptides in bacteriophage, AML cells cultured seven days in vitro, Specimen 1): 16%; Percent differentiated in Specimen 2 [3, 6]: 39%"
EFQQWSGK [G5 12-8B no Cys],–,–,–,–,–,–,Activation of Differentiation (AML bone marrow cells): 3
EFQQWSGK [H3 11-24],–,–,–,–,–,–,binding of phage displaying the peptide to CLL cells (CLL cells): bind
IEETARKG [A2 11-24 no Cys],4/14,4/13,1/2,2/2,–,–,activity on cell differentiation compared with the peptide with cysteine residues (FIG. 8) (AML bone marrow cells; in words): higher activity; induction of differentiation of the patient cells (FIG. 8) (AML bone marrow cells; in words): able to induce the differentiation; Activation of Proliferation (Patient No.) +GM-CSE (AML bone marrow cells; [5]): 11
